In patent US12390552B2, “Self-assembling peptide gel formulation and methods of use” (Arch Biosurgery, Inc., priority 2020, dated 2025):
Entries after “also recorded” stand apart in the source; their conditions may differ.

Legend:
[1] = test system: stomach and esophagus of pigs (submucosal space); assay: Submucosal cushion/lift and hemostasis in endoscopic resection procedures in a porcine model; format: in vivo
Method: Solutions of (RADA)4 (RADARADARADARADA; SEQ ID NO: 1) in water were prepared. Concentrations of (RADA)4 (SEQ ID NO: 1) were between from 1% and 3% w/v. Methylene blue or indigo carmine dye (0.1 to 0.4%) was added to the solution in some experiments, and excluded from the solution in other experiments.
Pigs were randomly assigned to control or experimental groups. Animals were anesthetized. Multiple (>20) endoscopic procedures (EMD and ESD) were performed in different areas of the stomach of pigs, including the pylorus, and the esophagus, including the sphincter. In some experiments, polyps had previously been created by applying bands to the mucosa.
The (RADA)4 (SEQ ID NO: 1) solutions (experimental animals) or saline or ELEVIEW™ (control animals) were administered into the submucosal space through 2.2 mm channel diameter, 230 cm long catheters that have either 25 gauge needle tips or spray tips on the end to form a cushion. In some experiments, catheters having different diameters were used as well as multiple internal channels. The products were delivered from a prefilled syringe or mixed from a kit prior to delivery.

[2] = Gel formation of (RADA)4 solutions mixed with dextran sulfate solution; format: physicochemical; conditions: 1%-3% solutions mixed with dextran sulfate solution (0.5 and 1%)

RADARADARADARADA [(RADA)4]
duration of submucosal lift ([1]; pig gastric antrum, delivered through 25G endoscopic injection needle): > 2 h | use with clips as sealant at post-polypectomy site ([1]; pig, applied following application of clips): useful in conjunction with clips as a potential sealant | hemostasis in actively bleeding lesions ([1]; pig, applied topically or injected into mucosa near the bleeding site, with or without visualizing agent): provide hemostasis in actively bleeding lesions; also recorded: stopped bleeding promptly, typically within seconds | durability of cushions versus controls ([1]; pig, compared with ELEVIEW™ and saline): lasting longer than ELEVIEW™ and saline controls | bleeding after polyp removal / tissue resection ([1]; pig, submucosal injection before dissection (prophylactic hemostasis)): no visible bleeding was observed following polyp removal; also recorded: minimal to no bleeding in most lesions was observed | time over which the tunnel opening could easily be found after removing and reinserting equipment ([1]; pig, submucosal tunnel through cushion): typically more than an hour | gel formation [2]: formed space occupying gels
